Data from PMC3880581 (Nature, 2012).

Molecular target: AtCHI (Arabidopsis thaliana, UniProt P41088)
Details: cyclization of the chalcone; constant not given

Chain of AtCHI (P41088 whole entry): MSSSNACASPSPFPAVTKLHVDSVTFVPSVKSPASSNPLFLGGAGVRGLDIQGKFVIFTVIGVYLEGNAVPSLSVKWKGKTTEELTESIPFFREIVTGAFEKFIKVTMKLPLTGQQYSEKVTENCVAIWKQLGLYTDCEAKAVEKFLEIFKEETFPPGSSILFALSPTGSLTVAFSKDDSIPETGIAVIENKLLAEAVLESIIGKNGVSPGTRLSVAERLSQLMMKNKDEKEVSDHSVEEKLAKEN

## O=C1C[C@@H](c2ccc(O)cc2)Oc2cc(O)cc(O)c21 [(2S)-naringenin]
  CHI activity assay: AtCHI catalyzes the in vitro formation of (2S)-naringenin
